As a reminder, the inhibition is the change of the read-out against control, counted positive when it falls.

One experiment addresses T1, human B1R receptor (CHO K1 cells stably transfected with the human B1R gene) (Homo sapiens, UniProt P46663).
T1 construct: expressed in transfected cells; host or cells: CHO K1 cells (Chinese hamster ovary), stably transfected
T1 sequence (P46663 1-353): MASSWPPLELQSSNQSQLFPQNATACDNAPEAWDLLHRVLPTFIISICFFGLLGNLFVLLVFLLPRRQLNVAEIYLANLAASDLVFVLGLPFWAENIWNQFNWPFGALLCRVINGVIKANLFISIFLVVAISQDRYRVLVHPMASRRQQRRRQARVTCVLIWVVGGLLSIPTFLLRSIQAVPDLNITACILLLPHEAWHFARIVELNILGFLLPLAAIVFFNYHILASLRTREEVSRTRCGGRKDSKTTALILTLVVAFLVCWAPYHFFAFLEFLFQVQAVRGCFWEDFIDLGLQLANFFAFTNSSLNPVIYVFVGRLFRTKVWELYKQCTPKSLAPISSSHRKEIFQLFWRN
The experiment in a line: Functional study on the bradykinin receptor 1 (B1R), Ca2+ fluorescence (Fluo-4) FLIPR/Novostar assay, hB1R cells. As to conditions: CHO-K1, read-out: % Inhibition (h-B1R) at 10 μM. The experiment is classed as cell-based. The method, boiled down:
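Test compounds (10 μM) were added first and the Ca2+ rise was scored as % activation against Lys-Des-Arg9-bradykinin (≥50 nM, human) or Des-Arg9-bradykinin (≥1 μM, rat). After 6-20 min, the matching agonist was given at its EC80, and % inhibition relative to maximal achievable inhibition was calculated.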
Turning to `Cc1cccc(C)c1C(=O)NC1CCc2ccc(C(=O)N(C)C3CCN(c4ccc5cnccc5c4)CC3)cc21` (stereo not shown) [CC_H-133, 3-[(2,6-Dimethyl-benzoyl)amino]-N-(1-isoquinolin-6-yl-piperidin-4-yl)-N-methyl-2,3-dihydro-1H-indene-5-carboxylic acid amide], the inhibition at 10 µM came to 90%.

`CC(C)CC(=O)NC1CCc2ccc(C(=O)N(C)C3CCN(c4ccc5cnccc5c4)CC3)cc21` (stereo not shown) [CC_H-79, N-(1-Isoquinolin-6-yl-piperidin-4-yl)-N-methyl-3-(3-methyl-butanoylamino)-2,3-dihydro-1H-indene-5-carboxylic acid amide]: the inhibition at 10 µM turned out to be 99%.

In the case of `CN(C(=O)c1ccc2c(c1)C(NC(=O)CCC1CCCC1)CC2)C1CCN(c2ccc3cnccc3c2)CC1` (stereo not shown) [CC_H-78, 3-(3-Cyclopentyl-propanoylamino)-N-(1-isoquinolin-6-yl-piperidin-4-yl)-N-methyl-2,3-dihydro-1H-indene-5-carboxylic acid amide], the inhibition at 10 µM worked out at 100%.

On to `CN(C(=O)c1ccc2c(c1)C(NC(=O)C(C)(C)c1ccccc1Cl)CC2(C)C)C1CCN(c2ccncc2)CC1` (stereo not shown) [CC_H-95, 3-[[2-(2-Chlorophenyl)-2-methyl-propanoyl]amino]-N,1,1-trimethyl-N-(1-pyridin-4-yl-piperidin-4-yl)-2,3-dihydro-indene-5-carboxylic acid amide], for which the inhibition at 10 µM amounted to 100%.

Take `Cc1cc(N2CCC(N(C)C(=O)c3ccc4c(c3)C(NC(=O)c3sccc3Cl)CC4)CC2)cc(C)n1` (stereo not shown) [CC_H-109, 3-Chloro-N-[6-[[1-(2,6-dimethyl-pyridin-4-yl)-piperidin-4-yl]-methyl-carbamoyl]-2,3-dihydro-1H-inden-1-yl]-thiophene-2-carboxylic acid amide]: the inhibition at 10 µM was 100%.

For the molecule `Cc1cc(N2CCC(N(C)C(=O)c3ccc4c(c3)C(N(C)C(=O)C3CCCCC3)CC4)CC2)cc(C)n1` (stereo not shown) [CC_H-81, 3-(Cyclohexanecarbonyl-methyl-amino)-N-[1-(2,6-dimethyl-pyridin-4-yl)-piperidin-4-yl]-N-methyl-2,3-dihydro-1H-indene-5-carboxylic acid amide], the inhibition at 10 µM is 100%.

`Cc1cc(N2CCC(N(C)C(=O)c3ccc4c(c3)C(NC(=O)c3cccc(Cl)c3Cl)CC4)CC2)cc(C)n1` (stereo not shown) [CC_H-96, 3-[(2,3-Dichloro-benzoyl)amino]-N-[1-(2,6-dimethyl-pyridin-4-yl)-piperidin-4-yl]-N-methyl-2,3-dihydro-1H-indene-5-carboxylic acid amide]: the inhibition at 10 µM was found to be 100%.

Turning to `Cc1cc(N2CCC(N(C)C(=O)c3ccc4c(c3)C(NC(=O)c3c(C)cccc3C)CC4)CC2)cc(C)n1` (stereo not shown) [CC_H-115, 3-[(2,6-Dimethyl-benzoyl)amino]-N-[1-(2,6-dimethyl-pyridin-4-yl)-piperidin-4-yl]-N-methyl-2,3-dihydro-1H-indene-5-carboxylic acid amide], the inhibition at 10 µM amounted to 99%.

For `CN(C(=O)c1ccc2c(c1)C(NS(=O)(=O)Cc1ccccc1C(F)(F)F)CC2(C)C)C1CCN(c2ccncc2)CC1` (stereo not shown) [CC_H-89, N,1,1-Trimethyl-N-(1-pyridin-4-yl-piperidin-4-yl)-3-[[[2-(trifluoromethyl)-phenyl]-methylsulfonyl]amino]-2,3-dihydro-indene-5-carboxylic acid amide], the inhibition at 10 µM was 100%.

With `Cc1cc(N2CCC(N(C)C(=O)c3ccc4c(c3)C(NC(=O)c3ccccc3Cl)CC4)CC2)cc(C)n1` (stereo not shown) [CC_H-99, 3-[(2-Chloro-benzoyl)amino]-N-[1-(2,6-dimethyl-pyridin-4-yl)-piperidin-4-yl]-N-methyl-2,3-dihydro-1H-indene-5-carboxylic acid amide], the inhibition at 10 µM worked out at 100%.

Consider `CN(C(=O)c1ccc2c(c1)C(NS(=O)(=O)c1c(Cl)cccc1C(F)(F)F)CC2(C)C)C1CCN(c2ccncc2)CC1` (stereo not shown) [CC_H-93, 3-[[[2-Chloro-6-(trifluoromethyl)-phenyl]sulfonyl]amino]-N,1,1-trimethyl-N-(1-pyridin-4-yl-piperidin-4-yl)-2,3-dihydro-indene-5-carboxylic acid amide], for which the inhibition at 10 µM came to 100%.

On to `Cc1cc(N2CCC(N(C)C(=O)c3ccc4c(c3)C(NC(=O)c3cnccc3C(F)(F)F)CC4)CC2)cc(C)n1` (stereo not shown) [CC_H-112, N-[6-[[1-(2,6-Dimethyl-pyridin-4-yl)-piperidin-4-yl]-methyl-carbamoyl]-2,3-dihydro-1H-inden-1-yl]-4-(trifluoromethyl)-pyridine-3-carboxylic acid amide], for which the inhibition at 10 µM stood at 100%.

Consider `Cc1cc(N2CCC(N(C)C(=O)c3ccc4c(c3)C(N(C)C(=O)c3cnccc3C(F)(F)F)CC4)CC2)cc(C)n1` (stereo not shown) [CC_H-86, N-[6-[[1-(2,6-Dimethyl-pyridin-4-yl)-piperidin-4-yl]-methyl-carbamoyl]-2,3-dihydro-1H-inden-1-yl]-N-methyl-4-(trifluoromethyl)-pyridine-3-carboxylic acid amide], for which the inhibition at 10 µM is 95%.

For the molecule `CN(C(=O)c1ccc2c(c1)C(NC(=O)C(C)(C)c1ccccc1Cl)CC2)C1CCN(c2ccncc2)CC1` (stereo not shown) [CC_H-139, 3-[[2-(2-Chlorophenyl)-2-methyl-propanoyl]amino]-N-methyl-N-(1-pyridin-4-yl-piperidin-4-yl)-2,3-dihydro-1H-indene-5-carboxylic acid amide], the inhibition at 10 µM is 98%.

On to `Cc1cc(N2CCC(N(C)C(=O)c3ccc4c(c3)C(N(C)S(=O)(=O)c3c(Cl)cccc3C(F)(F)F)CC4)CC2)cc(C)n1` (stereo not shown) [CC_H-134, 3-[[[2-Chloro-6-(trifluoromethyl)-phenyl]sulfonyl]-methyl-amino]-N-[1-(2,6-dimethyl-pyridin-4-yl)-piperidin-4-yl]-N-methyl-2,3-dihydro-1H-indene-5-carboxylic acid amide], for which the inhibition at 10 µM was 100%.

In the case of `Cc1cc(N2CCC(N(C)C(=O)c3ccc4c(c3)C(N(C)C(=O)c3sccc3Cl)CC4)CC2)cc(C)n1` (stereo not shown) [CC_H-88, 3-Chloro-N-[6-[[1-(2,6-dimethyl-pyridin-4-yl)-piperidin-4-yl]-methyl-carbamoyl]-2,3-dihydro-1H-inden-1-yl]-N-methyl-thiophene-2-carboxylic acid amide], the inhibition at 10 µM is 100%.

The same experiment, now with this note: CHO-K1, read-out: % inhibition (human B1R) at 10 μM.
As to `Cc1cc(N2CCC(N(C)C(=O)c3ccc4c(c3)[C@H](N(C(=O)c3ccccc3C)C(C)C)CC4)CC2)nc(C)n1` [Example H-172, (3R)-N-[1-(2,6-Dimethyl-pyrimidin-4-yl)-piperidin-4-yl]-3-[isopropyl-(2-methyl-benzoyl)-amino]-N-methyl-2,3-dihydro-1H-indene-5-carboxylic acid amide], the inhibition at 10 µM worked out at 65%.

As to `CCN(C(=O)C1CCCC1)[C@@H]1CCc2ccc(C(=O)N(C)C3CCN(c4cc(C)nc(C)n4)CC3)cc21` [Example H-229, (3R)-3-(Cyclopentanecarbonyl-ethyl-amino)-N-[1-(2,6-dimethyl-pyrimidin-4-yl)-piperidin-4-yl]-N-methyl-2,3-dihydro-1H-indene-5-carboxylic acid amide], the inhibition at 10 µM was 98%.

In the case of `CC(C)N(C(=O)c1ccc(F)cc1Cl)[C@@H]1CCc2cc(F)c(C(=O)N(C)C3CCN(c4ccncc4)CC3)cc21` [Example H-206, (3R)-3-[(2-Chloro-4-fluoro-benzoyl)-isopropyl-amino]-6-fluoro-N-methyl-N-(1-pyridin-4-yl-piperidin-4-yl)-2,3-dihydro-1H-indene-5-carboxylic acid amide], the inhibition at 10 µM turned out to be 94%.

Regarding `Cc1cc(N2CCC(N(C)C(=O)c3ccc4c(c3)[C@H](N(C)C(=O)c3c(F)cccc3Cl)CC4)CC2)nc(C)n1` [Example H-175, (3R)-3-[(2-Chloro-6-fluoro-benzoyl)-methyl-amino]-N-[1-(2,6 dimethyl-pyrimidin-4-yl)-piperidin-4-yl]-N-methyl-2,3-dihydro-1H-indene-5-carboxylic acid amide], the inhibition at 10 µM is 97%.

In the case of `CCN(C(=O)c1cc(F)ccc1Cl)[C@@H]1CCc2ccc(C(=O)N(C)C3CCN(c4ccncc4)CC3)cc21` [Example H-221, (3R)-3-[(2-Chloro-5-fluoro-benzoyl)-ethyl-amino]-N-methyl-N-(1-pyridin-4-yl-pipendin-4-yl)-2,3-dihydro-1H-indene-5-carboxylic acid amide], the inhibition at 10 µM was determined as 99%.

For the molecule `CCN(C(=O)c1ccc2c(c1)[C@H](NC(=O)c1ccccc1Cl)CC2)C1CCN(c2cc(C)nc(C)n2)CC1` [Example H-216, (3R)-3-[(2-Chloro-benzoyl)amino]-N-[1-(2,6-dimethyl-pyrimidin-4-yl)-piperidin-4-yl]-N-ethyl-2,3-dihydro-1H-indene-5-carboxylic acid amide], the inhibition at 10 µM stood at 98%.

In the case of `CCN(C(=O)c1c(F)cccc1Cl)[C@@H]1CCc2ccc(C(=O)N(C)C3CCN(c4cc(C)nc(C)n4)CC3)cc21` [Example H-176], the inhibition at 10 µM is 97%.

`CCN(C(=O)c1c(F)cccc1Cl)[C@@H]1CCc2ccc(C(=O)N(C)C3CCN(c4ccncc4)CC3)cc21` [Example H-220]: the inhibition at 10 µM stood at 99%.

On to `CC(C)N(C(=O)c1cccnc1C(F)(F)F)[C@@H]1CCc2ccc(C(=O)N(C)C3CCN(c4ccncc4)CC3)cc21` [Example H-208, N-Isopropyl-N-[(1R)-6-[methyl-(1-pyridin-4-yl-piperidin-4-yl)-carbamoyl]-2,3-dihydro-1H-inden-1-yl]-2-(trifluoromethyl)-pyridine-3-carboxylic acid amide], for which the inhibition at 10 µM was 45%.

(Values after patent publication US8680159B2, “Bradykinin 1 receptor modulating compounds” (Gruenenthal GmbH, priority 2010, dated 2014).)
